The record followed here is ChEMBL document CHEMBL1287715, “Discovery of N-benzyl-N'-(4-pipyridinyl)urea CCR5 antagonists as anti-HIV-1 agents (I): optimization of the amine portion” (Bioorg Med Chem Lett, 2010).

One series deals with HOS. The experiment in a line: Cytotoxicity against HOS cells upto 1 uM by celltiter glo assay. The series is classed as cell-based. Conditions: human.
The nature of series [1]: Cytotoxicity against peripheral blood lymphocyte cells upto 1 uM by celltiter glo assay. The series is classed as cell-based. Conditions: human. (In general: ATP-based viability assays read luminescence as a measure of living cells.)

Regarding `C=CCN(C(=O)NCc1ccc(C(N)=O)cc1)C1CCN(CCC2(c3cccc(F)c3)CCN(C(=O)c3cc(S(=O)(=O)NC(C)(C)C)c(F)cc3Cl)CC2)CC1`, the Activity result (in the series with HOS; in series [1]) was “Non-toxic” in each case.

In the case of `C=CCN(C(=O)Nc1ccc(C(F)(F)F)cc1)C1CCN(CCC2(c3cccc(F)c3)CCN(C(=O)c3cc(S(=O)(=O)NC(C)(C)C)c(F)cc3Cl)CC2)CC1`, the Activity entry (with HOS; in series [1]) was “Non-toxic” throughout.

With `C=CCN(C(=O)Cc1ccc(S(C)(=O)=O)cc1)C1CCN(CCC2(c3cccc(F)c3)CCN(C(=O)c3cc(S(=O)(=O)NC(C)(C)C)c(F)cc3Cl)CC2)CC1`, the Activity entry (with HOS; in series [1]) was “Non-toxic” each time.

With `C=CCN(C(=O)OCc1ccc(S(C)(=O)=O)cc1)C1CCN(CCC2(c3cccc(F)c3)CCN(C(=O)c3cc(S(=O)(=O)NC(C)(C)C)c(F)cc3Cl)CC2)CC1`, the Activity entry (in the series on HOS; in series [1]) was “Non-toxic” each time.

As to `C=CCN(C(=O)OCc1ccc(C#N)cc1)C1CCN(CCC2(c3cccc(F)c3)CCN(C(=O)c3cc(S(=O)(=O)NC(C)(C)C)c(F)cc3Cl)CC2)CC1`, the Activity result (in the series with HOS; in series [1]) was “Non-toxic” in each case.

For the compound `C=CCN(C(=O)OCc1ccc(C(=O)OC)cc1)C1CCN(CCC2(c3cccc(F)c3)CCN(C(=O)c3cc(S(=O)(=O)NC(C)(C)C)c(F)cc3Cl)CC2)CC1`, the Activity entry (in the series with HOS; in series [1]) was “Non-toxic” each time.

On to `C=CCN(C(=O)Nc1ccc(S(C)(=O)=O)cc1)C1CCN(CCC2(c3cccc(F)c3)CCN(C(=O)c3cc(S(=O)(=O)NC(C)(C)C)c(F)cc3Cl)CC2)CC1`, for which the Activity entry (in the series with HOS; in series [1]) was “Non-toxic” in each case.

On to `C=CCN(C(=O)NCc1ccc(F)cc1)C1CCN(CCC2(c3cccc(F)c3)CCN(C(=O)c3cc(S(=O)(=O)NC(C)(C)C)c(F)cc3Cl)CC2)CC1`, for which the Activity result (in the series with HOS; in series [1]) was “Non-toxic” each time.

On to `C=CCN(C(=O)Cc1ccc(F)cc1)C1CCN(CCC2(c3cccc(F)c3)CCN(C(=O)c3cc(S(=O)(=O)NC(C)(C)C)c(F)cc3Cl)CC2)CC1`, for which the Activity result (in the series on HOS; in series [1]) was “Non-toxic” throughout.

Take `C=CCN(C(=O)OCc1ccc(C(F)(F)F)cc1)C1CCN(CCC2(c3cccc(F)c3)CCN(C(=O)c3cc(S(=O)(=O)NC(C)(C)C)c(F)cc3Cl)CC2)CC1`: the Activity result (in the series with HOS; in series [1]) was “Non-toxic” each time.

Turning to `C=CCN(C(=O)Nc1ccc(C#N)cc1)C1CCN(CCC2(c3cccc(F)c3)CCN(C(=O)c3cc(S(=O)(=O)NC(C)(C)C)c(F)cc3Cl)CC2)CC1`, the Activity entry (in the series with HOS; in series [1]) was “Non-toxic” in each case.

Turning to `C=CCN(C(=O)NCc1ccc(C(=O)OC)cc1)C1CCN(CCC2(c3cccc(F)c3)CCN(C(=O)c3cc(S(=O)(=O)NC(C)(C)C)c(F)cc3Cl)CC2)CC1`, the Activity entry (in the series on HOS; in series [1]) was “Non-toxic” each time.

As for `C=CCN(C(=O)Cc1ccc(C(F)(F)F)cc1)C1CCN(CCC2(c3cccc(F)c3)CCN(C(=O)c3cc(S(=O)(=O)NC(C)(C)C)c(F)cc3Cl)CC2)CC1`, the Activity result (with HOS; in series [1]) was “Non-toxic” each time.

For the compound `C=CCN(C(=O)Cc1ccc(C(N)=O)cc1)C1CCN(CCC2(c3cccc(F)c3)CCN(C(=O)c3cc(S(=O)(=O)NC(C)(C)C)c(F)cc3Cl)CC2)CC1`, the Activity entry (in the series on HOS; in series [1]) was “Non-toxic” throughout.

As to `C=CCN(C(=O)OCc1ccc(F)cc1)C1CCN(CCC2(c3cccc(F)c3)CCN(C(=O)c3cc(S(=O)(=O)NC(C)(C)C)c(F)cc3Cl)CC2)CC1`, the Activity entry (with HOS; in series [1]) was “Non-toxic” throughout.

For `C=CCN(C(=O)Nc1ccc(F)cc1)C1CCN(CCC2(c3cccc(F)c3)CCN(C(=O)c3cc(S(=O)(=O)NC(C)(C)C)c(F)cc3Cl)CC2)CC1`, the Activity entry (with HOS; in series [1]) was “Non-toxic” in each case.

On to `C=CCN(C(=O)NCc1ccc(C(F)(F)F)cc1)C1CCN(CCC2(c3cccc(F)c3)CCN(C(=O)c3cc(S(=O)(=O)NC(C)(C)C)c(F)cc3Cl)CC2)CC1`, for which the Activity result (in the series on HOS; in series [1]) was “Non-toxic” each time.

For `C=CCN(C(=O)NCc1ccc(C#N)cc1)C1CCN(CCC2(c3cccc(F)c3)CCN(C(=O)c3cc(S(=O)(=O)NC(C)(C)C)c(F)cc3Cl)CC2)CC1`, the Activity entry (in the series on HOS; in series [1]) was “Non-toxic” in each case.

As to `C=CCN(C(=O)OCc1ccc(OC(F)(F)F)cc1)C1CCN(CCC2(c3cccc(F)c3)CCN(C(=O)c3cc(S(=O)(=O)NC(C)(C)C)c(F)cc3Cl)CC2)CC1`, the Activity entry (in the series on HOS; in series [1]) was “Non-toxic” throughout.

In the case of `C=CCN(C(=O)Nc1ccc(OC(C)=O)cc1)C1CCN(CCC2(c3cccc(F)c3)CCN(C(=O)c3cc(S(=O)(=O)NC(C)(C)C)c(F)cc3Cl)CC2)CC1`, the Activity result (with HOS; in series [1]) was “Non-toxic” each time.

For the compound `C=CCN(C(=O)Cc1ccc(OC(F)(F)F)cc1)C1CCN(CCC2(c3cccc(F)c3)CCN(C(=O)c3cc(S(=O)(=O)NC(C)(C)C)c(F)cc3Cl)CC2)CC1`, the Activity entry (in the series on HOS; in series [1]) was “Non-toxic” throughout.
